Test results as given in BindingDB's records for doi:10.1016/s0960-894x(03)00789-3 (Wyeth Research, 2003).

target: Human cytomegalovirus protease (assemblin, UL80); assay: In vitro inhibitory activity against HCMV (human cytomegalovirus) protease using scintillation proximity assay

SMILES	IC50 [nM]
Cc1nnc2nc(C)c(C)c(=O)n2n1 [3,7,8-Trimethyl-pyrimido[1,2-b][1,2,4,5]tetrazin-6-one]	300
COc1ccc(-c2nnc3nc(C)c(C)c(=O)n3n2)cc1 [3-(4-Methoxy-phenyl)-7,8-dimethyl-pyrimido[1,2-b][1,2,4,5]tetrazin-6-one]	500
Cc1nc2nnc(C(c3ccccc3)c3ccccc3)nn2c(=O)c1C [3-Benzhydryl-7,8-dimethyl-pyrimido[1,2-b][1,2,4,5]tetrazin-6-one]	1700

Other lines, results leading:

IC50 [nM]	SMILES
600	Cc1nc2nnc(C(C)(C)C)nn2c(=O)c1C [3-tert-Butyl-7,8-dimethyl-pyrimido[1,2-b][1,2,4,5]tetrazin-6-one]
1700	Cc1nc2nnc(-c3ccc([N+](=O)[O-])cc3)nn2c(=O)c1C [7,8-Dimethyl-3-(4-nitro-phenyl)-pyrimido[1,2-b][1,2,4,5]tetrazin-6-one]
300	Cc1ccc(-c2nnc3nc(C)c(C)c(=O)n3n2)cc1 [7,8-Dimethyl-3-p-tolyl-pyrimido[1,2-b][1,2,4,5]tetrazin-6-one]
400	Cc1nc2nnc(-c3ccccc3)nn2c(=O)c1C [7,8-Dimethyl-3-phenyl-pyrimido[1,2-b][1,2,4,5]tetrazin-6-one]
100	Cc1nc2nncnn2c(=O)c1C [7,8-Dimethyl-pyrimido[1,2-b][1,2,4,5]tetrazin-6-one]
